Reference: patent US10072006B2 (MUTABILIS, priority 2015, dated 2018)
Where a name gives a salt, the structure may show the parent alone.

Legend:
[1] = biological target: T1, TEM-1 (Escherichia coli, UniProt P62593); experiment: β-lactamase inhibitory activity, determination of IC50 (nitrocefin hydrolysis); assay type: biochemical; details: class (A), 30 min pre-incubation
T1 construct: made in house; host or cells: E. coli

[2] = system: C. murliniae 210102 (VIM-4); experiment: MIC of compounds and synergy with ceftazidime (broth microdilution); assay type: cell-based; details: strain 210102 (C. murliniae)
Method: (§1) Briefly, compounds alone according to the invention were prepared in DMSO and spotted (2 μL each) on sterile polystyrene plates (Corning, 3788). […] Microplates were incubated for 16-20 h at 35° C. in ambient air. The MIC of the compounds was defined as the lowest concentration of said compounds that prevented bacterial growth as read by visual inspection.

[3] = system: E. cloacae P99 (Derepressed ampC); experiment: as above; assay type: cell-based; details: strain P99 (E. cloacae)
Method: as §1

[4] = system: E. cloacae UFR38 (CTX-M-15, NDM-1); experiment: as above; assay type: cell-based; details: strain UFR38 (E. cloacae)
Method: as §1

[5] = system: E. coli 131119 (TEM-1, OXA-48); experiment: as above; assay type: cell-based; details: strain 131119 (E. coli)
Method: as §1

[6] = system: E. coli RGN238 (OXA-1); experiment: as above; assay type: cell-based; details: strain RGN238 (E. coli)
Method: as §1

[7] = system: E. coli UFR18 (CTX-M-15, OXA-204); experiment: as above; assay type: cell-based; details: strain UFR18 (E. coli)
Method: as §1

[8] = system: E. coli UFR32 (TEM-1, VEB-1, OXA-10); experiment: as above; assay type: cell-based; details: strain UFR32 (E. coli)
Method: as §1

[9] = system: E. coli UFR52 (TEM-1, SHV-12, IMP-8); experiment: as above; assay type: cell-based; details: strain UFR52 (E. coli)
Method: as §1

[10] = system: E. coli UFR61O (TEM-1, KPC-2); experiment: as above; assay type: cell-based
Method: as §1

[11] = system: E. coli UFR74 (SHV-1, DHA-1); experiment: as above; assay type: cell-based; details: strain UFR74 (E. coli)
Method: as §1

[12] = system: K. pneumoniae 6299 (TEM-1, SHV-11, OXA-163); experiment: as above; assay type: cell-based; details: strain 6299 (K. pneumoniae)
Method: as §1

[13] = system: K. pneumoniae BAA-1898 (TEM-1, SHV-11, SHV-12, KPC-2); experiment: as above; assay type: cell-based; details: strain BAA-1898 (K. pneumoniae)
Method: as §1

[14] = system: K. pneumoniae UFR24 (TEM-1, SHV-2, SHV-11, OXA-1, OXA-48, OXA-47); experiment: as above; assay type: cell-based; details: strain UFR24 (K. pneumoniae)
Method: as §1

[15] = system: K. pneumoniae UFR77 (CMY-2); experiment: as above; assay type: cell-based; details: strain UFR77 (K. pneumoniae)
Method: as §1

[16] = system: P. aeruginosa CIP105250 (OXA-15); experiment: as above; assay type: cell-based; details: strain CIP105250 (P. aeruginosa)
Method: as §1

[17] = system: P. aeruginosa CIP107051 (TEM-24); experiment: as above; assay type: cell-based; details: strain CIP107051 (P. aeruginosa)
Method: as §1

[18] = system: P. aeruginosa UFR35 (OXA-23); experiment: as above; assay type: cell-based; details: strain UFR35 (P. aeruginosa)
Method: as §1

[19] = system: P. aeruginosa UFR47 (VIM-1); experiment: as above; assay type: cell-based; details: strain UFR47 (P. aeruginosa)
Method: as §1

[20] = system: P. aeruginosa UFR48 (VIM-2); experiment: as above; assay type: cell-based; details: strain UFR48 (P. aeruginosa)
Method: as §1

[21] = system: P. aeruginosa UFR59 (IMP-29); experiment: as above; assay type: cell-based; details: strain UFR59 (P. aeruginosa)
Method: as §1

[22] = MIC of ceftazidime with compound fixed at 4 μg/mL
[23] = Enterobacter cloacae, 18 h, read-out: MIC compounds of the invention alone
[24] = Escherichia coli, 18 h, read-out: MIC compounds of the invention alone
[25] = Klebsiella pneumoniae, 18 h, read-out: MIC compounds of the invention alone
[26] = Pseudomonas aeruginosa, 18 h, read-out: MIC compounds of the invention alone

T1 sequence (P62593 24-286 limits assumed): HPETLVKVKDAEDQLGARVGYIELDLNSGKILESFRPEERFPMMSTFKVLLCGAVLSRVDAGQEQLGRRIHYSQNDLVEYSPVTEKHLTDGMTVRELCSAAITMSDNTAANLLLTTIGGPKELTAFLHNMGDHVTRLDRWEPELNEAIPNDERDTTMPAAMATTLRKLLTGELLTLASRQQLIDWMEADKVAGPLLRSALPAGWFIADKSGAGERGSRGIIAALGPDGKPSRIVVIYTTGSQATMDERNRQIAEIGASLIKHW

How did the IC50 [1] turn out when `NC[C@@H]1C=C(c2cnco2)[C@@H]2CN1C(=O)N2OS(=O)(=O)O` (relative stereo) [Example 1, Sodium and 2,2,2-trifluoroacetate [trans-2-(azaniumylmethyl)-4-oxazol-5-yl-7-oxo-1,6-diazabicyclo[3.2.1]oct-3-en-6-yl] sulfate] was run?
Its IC50 is 3.2 nM.

And the MIC ([2]; 18 h, read-out: MIC compounds of the invention alone)?
The MIC was greater than 32 µg/mL.

What about the “MIC, combination of CAZ and compounds of the invention” value (“MIC, combination” below) [2, 22] of the same compound?
The value was 0.5 µg/mL.

And the MIC [3, 23]?
Its MIC is 0.031 µg/mL.

And the “MIC, combination” value [3, 22]?
Its value is less than 0.25 µg/mL.

What about the MIC [4, 23] of the same compound?
Its MIC is no more than 0.016 µg/mL.

And the “MIC, combination” value [4, 22]?
The value was less than 0.25 µg/mL.

What about the MIC [5, 24] of the same compound?
The MIC was 32 µg/mL.

And the “MIC, combination” value [5, 22]?
The value was less than 0.25 µg/mL.

And the MIC [6, 24]?
Its MIC is greater than 32 µg/mL.

What about the “MIC, combination” value [6, 22] of the same compound?
The value was no more than 0.125 µg/mL.

What about the MIC [7, 24] of the same compound?
The MIC was 0.031 µg/mL.

What about the “MIC, combination” value [7, 22] of the same compound?
Its value is less than 0.25 µg/mL.

What about the MIC [8, 24] of the same compound?
Its MIC is 0.031 µg/mL.

And the “MIC, combination” value [8, 22]?
Its value is less than 0.25 µg/mL.

And the MIC [9, 24]?
Its MIC is 2 µg/mL.

And the “MIC, combination” value [9, 22]?
Its value is less than 0.25 µg/mL.

And the MIC ([10]; Escherichia coli, strain UFR61O (E. coli), read-out: MIC compounds of the invention alone)?
Its MIC is 0.031 µg/mL.

What about the “MIC, combination” value ([10]; MIC of ceftazidime with compound fixed at 4 μg/mL, strain UFR610 (E. coli)) of the same compound?
Its value is less than 0.25 µg/mL.

What about the MIC [11, 24] of the same compound?
Its MIC is greater than 32 µg/mL.

And the “MIC, combination” value [11, 22]?
The value was 4 µg/mL.

What about the MIC [12, 25] of the same compound?
The MIC was greater than 32 µg/mL.

And the “MIC, combination” value [12, 22]?
The value was 0.5 µg/mL.

And the MIC ([13]; Klebsiella pneumoniae, BAA1898, read-out: MIC compounds of the invention alone)?
Its MIC is greater than 32 µg/mL.

And the “MIC, combination” value [13, 22]?
The value was 0.5 µg/mL.

What about the MIC [14, 25] of the same compound?
Its MIC is greater than 32 µg/mL.

And the “MIC, combination” value [14, 22]?
The value was 4 µg/mL.

And the MIC [15, 25]?
Its MIC is greater than 32 µg/mL.

And the “MIC, combination” value [15, 22]?
The value was 2 µg/mL.

And the “MIC, combination” value [16, 22]?
The value was no more than 0.125 µg/mL.

And the MIC [16, 26]?
Its MIC is greater than 32 µg/mL.

What about the “MIC, combination” value [17, 22] of the same compound?
The value was less than 0.25 µg/mL.

What about the MIC [17, 26] of the same compound?
Its MIC is 2 µg/mL.

And the “MIC, combination” value [18, 22]?
Its value is less than 0.25 µg/mL.

And the MIC [18, 26]?
The MIC was 1 µg/mL.

What about the “MIC, combination” value [19, 22] of the same compound?
Its value is less than 0.25 µg/mL.

And the MIC [19, 26]?
The MIC was 2 µg/mL.

And the “MIC, combination” value [20, 22]?
Its value is less than 0.25 µg/mL.

And the MIC [20, 26]?
The MIC was 4 µg/mL.

And the “MIC, combination” value [21, 22]?
The value was less than 0.25 µg/mL.

And the MIC [21, 26]?
Its MIC is 8 µg/mL.
